Measured values: patent US20090143279A1 (priority 2007, published 2009)
Like-named read-outs stand apart in the source and are kept apart here.

Experiments:
[1] = test system: OXPHOS gene expression; assay type: cell-based, mouse; details: Conc 20 μM; for GE-HTS (composite Z-score): normalized score vs mock-treated (DMSO) wells
[2] = test system: C2C12 myotubes; details: Conc 20 μM; for Viability (composite Z-score): normalized score vs mock-treated (DMSO) wells
[3] = test system: nuOXPHOS transcripts; assay type: cell-based, mouse; details: for nucOX / nucOX (composite Z-score): Conc 20 μM; for nucOX (composite Z-score): normalized score vs mock-treated (DMSO) wells
[4] = test system: cytochrome c; assay type: cell-based, mouse; details: Conc 20 μM; for cyt c (composite Z-score): normalized score vs mock-treated (DMSO) wells
[5] = test system: cellular dehydrogenase activity; details: Conc 20 μM; for MTT (composite Z-score): normalized score vs mock-treated (DMSO) wells
[6] = test system: mitochondrial membrane potential; assay type: cell-based, mouse; details: Conc 20 μM; for ΔΨm (composite Z-score): normalized score vs mock-treated (DMSO) wells
[7] = test system: mtOXPHOS transcripts; assay type: cell-based, mouse; details: for mitoOX / mitoOX (composite Z-score): Conc 20 μM; for mitoOX (composite Z-score): normalized score vs mock-treated (DMSO) wells
[8] = test system: reactive oxygen species; assay type: cell-based, mouse; details: Conc 20 μM; for ROS (composite Z-score): normalized score vs mock-treated (DMSO) wells
[9] = normalized composite Z-score vs mock-treated (DMSO) wells
[10] = composite Z-score vs mock-treated (DMSO) wells
[11] = Table 7, C2C12 myotubes, 48 h, composite Z-score

Cc1occc(=O)c1/C=C/O [2-methyl-3-hydroxyethylenepyran-4-one]
GE-HTS [1, 9]: −0.128
Viability [2, 9]: 0.309
nucOX [3, 9]: −0.012
cyt c [4, 9]: −0.244
MTT [5, 9]: −0.725
ΔΨm [6, 9]: −0.608
mitoOX [7, 9]: −0.305
ROS [8, 9]: 0.234

COc1cc(OC)c2c(=O)c(-c3ccccc3)c(C)oc2c1OC [2-methyl-5,7,8-trimethoxyisoflavone]
GE-HTS ([1]; composite Z-score vs DMSO): 0.495
Viability ([2]; composite Z-score vs DMSO): −0.656
nucOX ([3]; composite Z-score vs DMSO): 0.629
cyt c ([4]; composite Z-score vs DMSO): 1.063
MTT ([5]; composite Z-score vs DMSO): −0.531
ΔΨm ([6]; composite Z-score vs DMSO): 0.306
mitoOX ([7]; composite Z-score vs DMSO): 0.081
ROS ([8]; composite Z-score vs DMSO): −0.371

CCCc1occc(=O)c1CCO [2-propyl-3-hydroxyethylenepyran-4-one]
GE-HTS (composite Z-score) [1]: 0.682
Viability (composite Z-score) [2]: 0.162
nucOX (composite Z-score) [3]: 0.870
cyt c (composite Z-score) [4]: −0.100
MTT (composite Z-score) [5]: −0.906
ΔΨm (composite Z-score) [6]: −0.741
mitoOX (composite Z-score) [7]: 0.202
ROS (composite Z-score) [8]: 0.195

O=C(O[C@@H]1Cc2c(O)cc(O)cc2O[C@@H]1c1cc(O)c(O)c(O)c1-c1c([C@H]2Oc3cc(O)cc(O)c3C[C@H]2OC(=O)c2cc(O)c(O)c(O)c2)cc(O)c(O)c1O)c1cc(O)c(O)c(O)c1 [2′,2′-bisepigallocatechin digallate]
GE-HTS [1, 9]: −0.865
Viability [2, 9]: 0.851
nucOX [3, 9]: −0.836
cyt c [4, 9]: 0.616
MTT [5, 9]: −0.826
ΔΨm [6, 9]: −1.132
mitoOX [7, 9]: −0.808
ROS [8, 9]: −0.130

O=C(O[C@@H]1Cc2c(O)cc(O)cc2O[C@@H]1c1cc(O)c(O)c(O)c1-c1c([C@H]2Oc3cc(O)cc(O)c3C[C@H]2O)cc(O)c(O)c1O)c1cc(O)c(O)c(O)c1 [2′,2′-bisepigallocatechin monogallate]
GE-HTS (composite Z-score) [1]: −0.573
Viability (composite Z-score) [2]: 0.442
nucOX (composite Z-score) [3]: −0.545
cyt c (composite Z-score) [4]: 0.246
MTT (composite Z-score) [5]: −1.318
ΔΨm (composite Z-score) [6]: −2.350
mitoOX (composite Z-score) [7]: −0.575
ROS (composite Z-score) [8]: 0.428

O=C(/C=C/c1ccccc1)c1ccc(O[C@@H]2O[C@H](CO)[C@@H](O)[C@H](O)[C@H]2O)cc1O [2′,4′-dihydroxychalcone 4′-glucoside]
GE-HTS (composite Z-score) [1]: −0.189
Viability (composite Z-score) [2]: 0.556
nucOX (composite Z-score) [3]: −0.247
cyt c (composite Z-score) [4]: −0.225
MTT (composite Z-score) [5]: −1.358
ΔΨm (composite Z-score) [6]: −0.532
mitoOX (composite Z-score) [7]: 0.004
ROS (composite Z-score) [8]: 1.144

O=C(C=C(O)c1ccccc1)c1ccccc1O [2′,beta-dihydroxychalcone]
GE-HTS ([1]; composite Z-score vs DMSO): 0.097
Viability ([2]; composite Z-score vs DMSO): −0.801
nucOX ([3]; composite Z-score vs DMSO): −0.188
cyt c ([4]; composite Z-score vs DMSO): −0.260
MTT ([5]; composite Z-score vs DMSO): −1.791
ΔΨm ([6]; composite Z-score vs DMSO): −0.044
mitoOX ([7]; composite Z-score vs DMSO): 0.600
ROS ([8]; composite Z-score vs DMSO): 0.194

COc1ccc(-c2coc3cc(O)ccc3c2=O)c(OC)c1 [2′-methoxyformonetin]
GE-HTS [1, 10]: −0.484
Viability [2, 10]: 0.477
nucOX [3, 10]: −0.561
cyt c [4, 10]: −1.318
MTT [5, 10]: −1.138
ΔΨm [6, 10]: 0.388
mitoOX [7, 10]: −0.296
ROS [8, 10]: 1.137

COc1cc(C=CC=O)cc(OC)c1OC [3,4,5-trimethoxycinnamaldehyde]
GE-HTS ([1]; composite Z-score vs DMSO): −0.523
Viability ([2]; composite Z-score vs DMSO): 1.061
nucOX ([3]; composite Z-score vs DMSO): −0.724
cyt c ([4]; composite Z-score vs DMSO): −0.808
MTT ([5]; composite Z-score vs DMSO): 1.043
ΔΨm ([6]; composite Z-score vs DMSO): 0.647
mitoOX ([7]; composite Z-score vs DMSO): 0.025
ROS ([8]; composite Z-score vs DMSO): −0.228

CC1(O)CC2C(CC1O)C2(C)C (stereo not shown) [3,4-dihydroxycarane]
GE-HTS ([1]; composite Z-score vs DMSO): −1.265
Viability ([2]; composite Z-score vs DMSO): 0.448
nucOX ([3]; composite Z-score vs DMSO): −0.951
cyt c ([4]; composite Z-score vs DMSO): 0.475
MTT ([5]; composite Z-score vs DMSO): −0.697
ΔΨm ([6]; composite Z-score vs DMSO): −0.659
mitoOX ([7]; composite Z-score vs DMSO): −1.620
ROS ([8]; composite Z-score vs DMSO): 0.697

C=CC(C1=CC(=O)C(OC)=C(OC)C1=O)c1ccccc1 (stereo not shown) [3,4-dimethoxydalbergione, reference compound]
GE-HTS [1, 10]: −3.047
Viability [2, 10]: −4.588
nucOXPHOS Z [3, 11]: −2.94
nucOX [3, 10]: −2.944
cyt c [4, 10]: −5.551
MTT [5, 10]: −6.200
ΔΨm [6, 10]: −3.787
mito-OXPHOS Z [7, 11]: −2.72
mitoOX [7, 10]: −2.724
ROS [8, 10]: −1.269

CC(=O)c1cc(CC=C(C)C)c(O)c(CC=C(C)C)c1 [3,5-diprenyl-4-hydroxyacetophenone]
GE-HTS ([1]; composite Z-score vs DMSO): 0.149
Viability ([2]; composite Z-score vs DMSO): −0.293
nucOX ([3]; composite Z-score vs DMSO): −0.036
cyt c ([4]; composite Z-score vs DMSO): −0.220
MTT ([5]; composite Z-score vs DMSO): −0.582
ΔΨm ([6]; composite Z-score vs DMSO): −0.022
mitoOX ([7]; composite Z-score vs DMSO): 0.538
ROS ([8]; composite Z-score vs DMSO): 1.014

COc1ccc2c(=O)c(OC)c(-c3ccccc3)oc2c1 [3,7-dimethoxyflavone]
GE-HTS [1, 9]: −0.945
Viability [2, 9]: −0.730
nucOX [3, 9]: −1.084
cyt c [4, 9]: 0.982
MTT [5, 9]: −1.089
ΔΨm [6, 9]: 0.817
mitoOX [7, 9]: −0.434
ROS [8, 9]: 0.652
